Test results as given in US9856304B2, “Peptide and application thereof” (Saitama Medical University, priority 2013, dated 2018).

Tested on: human iPS cells (253G1 cells)
Test: Differentiation induction of human iPS cells into pancreatic hormone-producing cells (2), quantitative RT-PCR
Format: cell-based
Details: 1 nM betagenin in steps (A2) to (D2), vs ACN control, GAPDH corrected
Procedure: As human iPS cells, used were 253G1 cells purchased from the cell bank at RIKEN. The cells were cultured/maintained in an ES cell culture medium (DMEM/ham F12, 20% KSR, nonessential amino acid, 2 mM L-glutamine, 0.1 mM 2-mercaptoethanol, 5.2 mM NaOH) with added 4 ng/mL FGF-2 (Global Stem) and penicillin/streptomycin (Nacalai Tesque, Inc.) along with SNL76/7 cells (DS Pharma Biomedical) treated with mitomycin-C. CTK (0.25% trypsin, 1 mg/mL Collagenase IV, 20% KSR, 1 mM CaCl2 in PBS) was used for cell detachment, and diluted at a ratio of 1:3 to 1:4 to perform passage culture.
The cells were detached with trypsin-EDTA 3 days before the start of differentiation induction, and plated at a cell density of 6.3×10^4 cells/cm2, and cultured for 1 day in an ES cell culture medium with added 10 μM Y-27632 (Wako), 4 ng/mL FGF-2 and penicillin/streptomycin along with STO cells treated with mitomycin-C. Subsequently, they were further cultured for 2 days in an ES cell culture medium with added 4 ng/mL FGF-2 and penicillin/streptomycin.
On the first day of the start of differentiation induction, the culture medium was replaced with a RPMI1640 culture medium (Nacalai Tesque, Inc.) with added 2% (v/v) FBS, 100 ng/mL activin A (SBI), 3 μM CHIR99021 (Axon Medchem) and 1 nM betagenin, and cultured for 1 day (Step (A2)). […]
The gene expressions of insulin, glucagon, somatostatin were confirmed by quantitative RT-PCR for cells (n=3 for each of the betagenin addition group and the control group) obtained from 253G1 cells via the above steps (A2) to (D2). Specifically, total RNA was first extracted from the cells using a SV Total RNA Isolation System (Promega), and reverse transcription reactions were performed with BioScript™ transcriptase (Bioline), and then quantitative PCR analysis was performed with LightCycler™ (Roche) using SYBR™ Green PCR Master Mix (Applied Biosystems). Note that the gene expression of GAPDH was determined by quantitative RT-PCR as an internal control. […]

betagenin: chemically synthesized peptide of SEQ ID NO: 1, fragment of human TM4SF20 from Position 170 to Position 229 (WRASSFHFDSEENKHRLIHFSVFLGLLLVGILEVLFGLSQIVIGFLGCLCGVSKRRSQIV; Peptide Sequence betagenin; listed as Homo sapiens)
increased: amount of expression of insulin (relative) (first day taken as 1, FIG. 6) | amount of expression of glucagon (relative) (first day taken as 1, FIG. 7) | amount of expression of somatostatin (relative) (first day taken as 1, FIG. 8)
